Test results from US20090197921A1, “USE OF NICOTINE, ANALOGUES, THEREOF, PRECURSORS THEREOF OR D[…] IN THE TREATMENT OF VARIOUS PA[…] CAPABLE OF I[…] a-MSH AD[…] PROPHYLACTIC OR T[…]” (priority 2006, published 2009).

Experiments:
[1] = cited from earlier work
[2] = Procedure: Patient they are in the ninth month of pregnant without diabetes or hypertension or neuropathy antecedents. […] Twenty four hours later Amikacina IM every 12 hours was administered. […] It was decided to administrate nicotine in watery vehicle by sublingual pathway in a concentration of 3 mg/ml.
At the beginning 15 drops were administrated and 30 minutes later 10 drops more. […] Nicotine was administrated during 4 weeks in dosis of 5 drops by sublingual pathway every three hours.

[3] = twenty four hours later
[4] = 2 drops sublingual every hour
Source text: Patient with post traumatic bleeding (hyphema). […] We indicated a dosis of 2 drops sublingual pathway every hour, for the hyphema was of 90% the vision was poor and the intraocular pressure was 40 mmHg despite last treatment. All medicine was suspended and began the new treatment.

| SMILES | subyacent renal trauma by ischemia/reperfussion ([1]; in vivo) | distant pulmonary trauma ([1]; renal ischemia/reperfussion) | pain ([2]; nicotine 3 mg/ml in watery vehicle, sublingual, 15 drops then 10 drops 30 minutes later) | general physical state ([2]; nicotine 3 mg/ml sublingual) | weight increase [3] [grams] | recovery ([4]; after four weeks) [%] | vision ([4]; three weeks later) |
| --- | --- | --- | --- | --- | --- | --- | --- |
| C/C(=N\N=C(N)N)c1cc(NC(=O)CCCCCCCCC(=O)Nc2cc(/C(C)=N/N=C(N)N)cc(/C(C)=N/N=C(N)N)c2)cc(/C(C)=N/N=C(N)N)c1.Cl.Cl.Cl.Cl [CNI-1493] | does not have effect | partialy reduces |  |  |  |  |  |
| CN1CCCC1c1cccnc1 (stereo not shown) [nicotine] |  |  | diminished significantly | improves in the dramatic form | 80 | 90 | 20/40 |
